By logP is commonly meant a log measure of how a compound divides between an organic and an aqueous phase. A higher logP goes with higher lipophilicity.

Where a SMILES comes first, the peptide text is derived from it.

For `CCCCCC(=O)OCC(=O)C1(O)C(C)CC2C3CCC4=CC(=O)C=CC4(C)C3(F)C(O)CC21C` (configuration not stated), the logP came to 4.3.
As for `CCNC(=S)NS(=O)(=O)c1cnccc1NC1CCCCCCC1`, the figure is 3.86.
The compound `CCOC(=O)Nc1ccc2cc3ccc4c(c3nc2c1)COC(=O)N4` returned a log partition coefficient (logP) of 2.
On to `CNC(C)Cc1ccc(N)cc1` (configuration not stated), for which the logP is 0.81.
The compound `CCOc1cccc2nc(N)nc(N)c12` returned a log partition coefficient (logP) of 1.69.
As for `CCCOCCCNc1[nH]cnc2ncnc1-2`, the figure is 1.74; as for `CNc1ncnc2[nH]cnc12`, 0.43.
Compound `OC(CNCCCc1ccccc1)CON=C(C1CC1)C1CC1` (configuration not stated) yielded a logP of 2.56.
The compound `CCCCC(C)N=C=S` (configuration not stated) had a lipophilicity (logP) of 3.94.
The compound `CC(C)CC(N)C(=O)NC(C(=O)NCC(=O)NC(C(=O)NC(Cc1ccccc1)C(=O)O)C(C)O)C(C)C` (configuration not stated) (H-LVGTF-OH; configuration not given here) came in with a log partition coefficient (logP) of -1.18.
As for `O=C1N=C(N2CCOCC2)CN1c1ccccc1`, the figure is 0.6; as for `CCC(C)C(N)C(=O)NC(C(=O)NC(C(=O)NC(C(=O)NC(C(=O)O)C(C)CC)C(C)C)C(C)C)C(C)C` (configuration not stated) (H-IVVVI-OH; configuration not given here), -0.89; as for `COC(=O)C1=C(C)NC(C)=C(C(=O)OCc2cccnc2)C1c1cccc2c1OCO2` (configuration not stated), 3.61.
`CC(C)C(N)C(=O)N1CCCC1C(=O)NCC(=O)NC(C(=O)O)C(C)C` (configuration not stated) (H-VPGV-OH; configuration not given here) returned a logP of -2.83.
Compound `CCCC(=NOCC)C1=C(O)CC(c2ccccc2)(c2ccccc2)OC1=O` displayed a lipophilicity (logP) of 4.75.
Take `CCC(C)C(NC(=O)C(Cc1ccc(O)cc1)NC(=O)C(C)N)C(=O)O` (configuration not stated): the log partition coefficient (logP) was -2.04.
With `Nc1cccc(Nc2ccccc2C(=O)O)c1`, the logP was found to be 2.99.
For the compound `Cc1nc2c3c(c(C(=O)O)cn2c1C)CCC(c1ccccc1)O3` (configuration not stated), the logP turned out to be 4.6.
As to `Nc1nnnn1-c1cc(Cl)c(Cl)cc1Cl`, the logP was determined as 2.3.
As for `Cc1oc2c(C)cc3c(C)cc(=O)[nH]c3c2c1C`, the lipophilicity (logP) came out at 3.5.
In the case of `S=C=NCCCCCCCCc1ccccc1`, the logP is 5.81.
In turn, `CCNC(=O)NS(=O)(=O)c1cnccc1Nc1ccccc1C` displayed a logP of 3.06.
`CC(C)OC(=O)CC(C(=O)OC(C)C)S(=O)(=O)c1ccc([N+](=O)[O-])cc1` (configuration not stated) came in with a lipophilicity (logP) of 2.18.
Take `COc1ccc(C2Cc3c(ccc(Br)c3OC)N(CCN(C)C)C(=O)C2C)cc1` (configuration not stated): the log partition coefficient (logP) came out at 5.4.
As for `CCCCNC(=O)Cn1cccc(O)c1=O`, the figure is 0.33; as for `CCOC(=O)C1=C(C)NC(C)=C(C(=O)OCC)C1c1cccc2c1OCO2`, 4.32.
As for `NC(Cc1ccccc1)C(=O)NC(Cc1ccccc1)C(=O)NCC(=O)NC(Cc1ccccc1)C(=O)O` (configuration not stated) (H-FFGF-OH; configuration not given here), the figure is 0.17; as for `N#CC(C#N)=NNc1cccc(Cl)c1Cl`, 3.85.
Compound `CC(C)CC(N)C(=O)NC(CC(C)C)C(=O)NC(C)C(=O)NC(Cc1ccccc1)C(=O)O` (configuration not stated) (H-LLAF-OH; configuration not given here) gave a logP of -1.
Regarding `CC1=C(C#N)C(C)(C)C(C#N)=C(C)N1`, the logP was 2.47.
In turn, `Cc1cccc(C)c1CCn1ccnc1` had a logP of 2.73.
As for `O=C(O)c1cc(O)c(Br)c(O)c1`, the figure is 1.75; as for `O=c1cc(-c2ccccc2Cl)oc2ccccc12`, 3.61; as for `CCN(CC)CCCC(C)NC(=O)c1ccc([N+](=O)[O-])cc1[N+](=O)[O-]` (configuration not stated), 1.73.
As for `O=C(O)c1ccccc1C(c1ccc(O)cc1)c1ccc(O)cc1`, the figure is 2.61.
In turn, `CCCN(CCC)C1CCc2c(cccc2OC)C1` (configuration not stated) yielded a logP of 4.24.
As for `OCCCCCNc1ncnc2c1ncn2C1OC(CO)C(O)C1O` (configuration not stated), the figure is -0.24; as for `Cc1nc(C(Cl)(Cl)Cl)nc(C(Cl)(Cl)Cl)n1`, 3.78; as for `O=C(O)c1cccc(F)c1F`, 1.88.
The compound `OCCNc1ncnc2nc[nH]c12` registered a lipophilicity (logP) of -0.18.
Turning to `COc1cccc2nc(N)nc(N)c12`, the logP was 1.18.
The compound `COc1ccc(C2CC(=O)N(CCN(C)C)c3cccc(C(F)(F)F)c3C2)cc1` (configuration not stated) gave a logP of 5.1.
`Cc1cc2ccc3occc3c2oc1=O`: the logP turned out to be 2.57.
In the case of `CC(=NNC(=O)c1ccc(O)cc1)c1cnccn1`, the lipophilicity (logP) was found to be 1.9.
As for `CN(C)CCOc1cc2c(c3ccccc13)-c1ccccc1C2=O`, the figure is 4.32; as for `CC(=O)NC(CCCN(Cc1ccccc1)C(=O)N(C)N=O)C(=O)NCc1ccccc1` (configuration not stated), 2.
`COc1coc(CCl)cc1=O`: the logP amounted to 0.16.
`Cc1ccccc1-n1nnnc1N` registered a logP of 0.93.
As for `C=CCC1C(=O)N(CCN(C)C)c2cccc(C(F)(F)F)c2CC1c1ccc(OC)cc1` (configuration not stated), the figure is 6.6; as for `CCCc1nc(NC(C)C)nc(N2CCOCC2)n1`, 2.26.
`CCn1ccnc1CC1COc2ccccc2O1` (configuration not stated) had a logP of 2.31.
Compound `O=C1CN=C(c2ccccc2F)c2cc(Br)ccc2N1` registered a logP of 2.98.
Turning to `C=CCC1C(=O)N(CCN(C)C)c2ccccc2CC1c1ccc(OC)cc1` (configuration not stated), the lipophilicity (logP) is 5.3.
As for `Cc1ccc(O)cc1N`, the figure is 1.16.
`CC(=O)c1c2ccccc2cc2ccccc12` gave a logP of 3.6.
For the compound `CCOC(=O)c1cn2c(C)c(C)nc2c2c1CCC(c1ccccc1)O2` (configuration not stated), the lipophilicity (logP) is 5.5.
On to `CC(C)CC(N)C(=O)N1CCCC1C(=O)NC(CC(C)C)C(=O)NC(CC(C)C)C(=O)O` (configuration not stated) (H-LPLL-OH; configuration not given here), for which the logP was -0.92.
In turn, `CCOC(=O)CCCn1ccnc1[N+](=O)[O-]` had a log partition coefficient (logP) of 0.69.
As for `NC(=O)C(CCN1CC2CCC(CC2)C1)(c1ccccc1)c1ccccn1` (configuration not stated), the figure is 2.72; as for `OC(CNCC1COc2ccccc2O1)CON=C(C1CC1)C1CC1` (configuration not stated), 2.22; as for `Cc1oc2c(C)cc3ccc(=O)oc3c2c1C`, 3.34.
As for `COc1ccccc1NC(=O)OCCN1CCCCC1`, the figure is 3.11; as for `CC(CO)N(C)C` (configuration not stated), 0.16; as for `C[N+](C)([O-])CCCN1c2ccccc2Sc2ccccc21`, 1.9.
For `Cc1ccccc1Nc1ccncc1S(=O)(=O)NC(=O)NC(C)C`, the log partition coefficient (logP) came to 3.91.
As for `CCNC(=NC#N)NS(=O)(=O)c1cnccc1NC1CCCCCC1`, the figure is 1.53.
In turn, `CCNC(=S)NN=C(c1cccc([N+](=O)[O-])c1)c1ccccn1` had a logP of 2.53.
As for `CC(C)(C)[N+]([O-])=Cc1ccc(O)cc1`, the figure is 0.6; as for `Nc1nnnn1-c1cccc(Cl)c1`, 1.44.
With `COc1c2c(cc3c1-c1ccc(OC)c(=O)cc1C(NC(C)=O)CC3)OCO2` (configuration not stated), the logP stood at 1.6.
Consider `CCCCCOc1cccc(NC(=O)OCCN2CCCCC2)c1`, for which the logP stood at 5.5.
Compound `O=C(OC1Cc2c(O)cc(O)cc2OC1c1ccc(O)c(O)c1)c1ccc(O)c(O)c1` (configuration not stated) gave a logP of 2.45.
As for `COC(=O)c1ccc(Cl)cc1[N+](=O)[O-]`, the figure is 2.35.
For `CON(C)C(=O)Nc1ccc(OC(C)CC2CCCCC2)cc1` (configuration not stated), the logP was determined as 4.51.
In turn, `COc1cc2ncnc(Nc3cccc(Cl)c3)c2cc1OC` returned a lipophilicity (logP) of 3.51.
`NC1=NCC(CN2CCC(Cc3ccccc3)CC2)O1` (configuration not stated) had a logP of 2.38.
For `CC(Nc1[nH]cnc2ncnc1-2)c1ccccc1` (configuration not stated), the logP amounted to 2.58.

These data come from the OPERA property sets (Mansouri et al. 2018).
